Test results from publication PMC8920097, “Prediction of hERG inhibition of drug discovery compounds using biomimetic HPLC measurements” (ADMET & DMPK, 2021).
Read-outs that look alike come from different tables or passages of the source.

Columns and labels:
[1] = parameters: method as in PMID 11472245; settings: cited from earlier work
[2] = parameters: method as in doi:10.5599/admet.5.1.373; settings: calibration set; predetermined by isocratic measurements; cited from earlier work
physchem = settings: for chromatographic logD: Gemini NX-C-18 reversed-phase HPLC column, pH 7.4
Protocol: The Chromatographic Hydrophobicity Index (CHI) was measured using the compounds’ calibrated gradient retention times obtained from an Agilent 1100 HPLC fitted with a Gemini NX-C-18 column (Phenomenex Ltd Macclesfield, UK) with dimensions of 50 x 3 mm and 5 μm particle size. […] The mobile phase B was 100 % acetonitrile. […] An acetonitrile linear gradient was used from 0 to 100 %. […] The retention time values for a standard set of compounds listed in Table 1 were used to convert the drug retention times to CHI values.

[3] = tested on: alpha-1-acid-glycoprotein (AGP); experiment: Protein binding on Chiralpak AGP HPLC column; settings: pH 7.4, Chiralpak AGP
Protocol: (§1) The measurement of the biomimetic properties of the available drugs was conducted in our laboratories. Generic gradient HPLC methods were used to determine the chromatographic hydrophobicity Index (CHI) using mobile phases at three different pH values. The protein binding of the compounds was measured using immobilised human serum albumin (HSA), and alpha-1-acid-glycoprotein (AGP) stationary phases. The phospholipid-binding was measured using the immobilised artificial membrane (IAM) stationary phase. The aim was to establish relationships between the cardiotoxicity potential and the biomimetic binding properties of the drugs and to evaluate their predictive performance.

[4] = Phospholipid binding at pH 7.4 on IAM PC.DD2 HPLC column; assay type: physicochemical; parameters: key to CHI IAM: approximates acetonitrile concentration (%) in mobile phase at elution; settings: for CHI IAM: pH 7.4; for log k IAM: pH 7.4, derived from CHI IAM by equation 1
Protocol: The phospholipid-binding was measured using an IAM PC.DD2 column with dimensions of 100 x 4.6 mm (Regis Technologies Inc., Morton Grove, IL, USA). The gradient retention times were measured using a 50 mM ammonium acetate mobile phase with the pH adjusted to 7.4. The mobile phase flow rate was 1.5 mL/min. […] The cycle time was 6 min, plus an additional 1 min equilibration time was applied while the injector prepared for the next injection. The gradient retention times were calibrated with the acetophenone homologues for which the CHI IAM values have been established using isocratic measurements. […] The CHI Index on the IAM column (CHI IAM) approximates the acetonitrile concentration in the mobile phase when the compound elutes. […] The CHI IAM values have been converted to log k IAM values derived from the CHI IAM values using equation 1. It represents the equivalent value derived from several isocratic measurements with extrapolated log retention factors to 100 % aqueous mobile phase. The log k IAM values can be converted to log K (IAM) values and show linear relationships with the octanol/water partition coefficients.

[5] = Charge character of the drugs at pH 7.4; assay type: physicochemical
HSA [6] = settings: calibration set; log k = log (%binding/(101-%binding)) from literature % binding
hERG channel = settings: cited from earlier work
AGP [7] = settings: calibration set; equilibrium dialysis; literature; cited from earlier work
AGP [8] = experiment: Literature % binding to AGP by equilibrium dialysis (calibration set); settings: log k = log (%binding/(101-%binding)) from literature % binding
[9] = target: human serum albumin (HSA) (Homo sapiens, UniProt P02768); experiment: Protein binding on Chiralpak HSA HPLC column; settings: pH 7.4, Chiralpak HSA
Protocol: as §1

HSA [10] = settings: calibration set; equilibrium dialysis; literature; cited from earlier work
[11] = reversed-phase HPLC, Gemini NX-C-18 column (50 x 3 mm, 5 µm)
[12] = literature values, mean where several reported, molar

Chain of human serum albumin (HSA) (P02768 25-609): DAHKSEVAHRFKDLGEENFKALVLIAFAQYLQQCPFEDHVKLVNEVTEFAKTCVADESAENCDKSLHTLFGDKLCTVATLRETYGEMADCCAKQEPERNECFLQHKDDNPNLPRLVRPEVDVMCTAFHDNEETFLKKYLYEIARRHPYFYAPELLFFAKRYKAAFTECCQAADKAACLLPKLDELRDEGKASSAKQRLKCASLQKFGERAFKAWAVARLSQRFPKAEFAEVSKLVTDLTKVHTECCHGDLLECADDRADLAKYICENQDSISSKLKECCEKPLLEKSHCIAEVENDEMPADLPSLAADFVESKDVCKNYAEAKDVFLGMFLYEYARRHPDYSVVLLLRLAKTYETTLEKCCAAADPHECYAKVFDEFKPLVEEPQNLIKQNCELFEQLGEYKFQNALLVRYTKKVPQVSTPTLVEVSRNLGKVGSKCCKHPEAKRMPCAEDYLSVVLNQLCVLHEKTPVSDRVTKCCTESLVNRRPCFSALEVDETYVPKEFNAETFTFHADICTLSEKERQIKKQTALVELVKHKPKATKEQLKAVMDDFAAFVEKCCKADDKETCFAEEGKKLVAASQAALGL

SMILES | chromatographic logD (physchem) | log k AGP [3] | log k IAM [4] | Charge [5] | chromatographic logP (physchem; [11]) | log k HSA [9] | further results
COc1cc2c(c(OC)c1OC)-c1ccc(OC)c(=O)cc1[C@@H](NC(C)=O)CC2 [Colchicine] |  |  |  |  |  |  | CHI at pH 2.6 [1]: 43.9; CHI at pH 7.4 [1]: 45.0; CHI at pH 10.5 [1]: 43.9
CC(=O)c1ccccc1 [Acetophenone] |  |  |  |  |  |  | CHI at pH 2.6 ([1]; calibration set): 64.1; CHI at pH 7.4 ([1]; calibration set): 65.1; CHI at pH 10.5 ([1]; calibration set): 64.1; CHI IAM [2]: 17.2
c1ccc2[nH]cnc2c1 [Benzimidazole] |  |  |  |  |  |  | CHI at pH 2.6 ([1]; calibration set): 6.3; CHI at pH 7.4 ([1]; calibration set): 34.3; CHI at pH 10.5 ([1]; calibration set): 30.6
CC(=O)Nc1ccccc1 [Acetanilide] |  |  |  |  |  |  | CHI IAM [2]: 11.5
CCCCCCC(=O)c1ccccc1 [Heptanophenone] |  |  |  |  |  |  | CHI IAM [2]: 45.7
c1ccc(-c2nn[nH]n2)cc1 [Phenyl tetrazole] |  |  |  |  |  |  | CHI at pH 2.6 ([1]; calibration set): 42.2; CHI at pH 7.4 ([1]; calibration set): 23.6; CHI at pH 10.5 ([1]; calibration set): 16.0
CCCCCC(=O)c1ccccc1 [Hexanophenone] |  |  |  |  |  |  | CHI IAM [2]: 41.8
COc1ccc2c(c1)c(CC(=O)O)c(C)n2C(=O)c1ccc(Cl)cc1 [Indomethacin] | 1.47 | 0.18 | 1.81 | Acidic |  |  | chromatographic logP (physchem): 3.31; CHI IAM [4]: 30.11; log k HSA (HSA [6]): 1.8; hERG pIC50 (hERG channel): 3.72; % AGP (AGP [7]): 56.0%; log k AGP (AGP [8]): 0.1
c1ccc2[nH]ccc2c1 [Indole] |  |  |  |  |  |  | CHI at pH 2.6 [1]: 72.1; CHI at pH 7.4 [1]: 71.5; CHI at pH 10.5 [1]: 72.1
CCC(=O)c1ccccc1 [Propiophenone] |  |  |  |  |  |  | CHI at pH 2.6 ([1]; calibration set): 77.4; CHI at pH 7.4 ([1]; calibration set): 77.4; CHI at pH 10.5 ([1]; calibration set): 77.4; CHI IAM [2]: 25.9
COC(=O)C1=C(C)NC(C)=C(C(=O)OCCN(C)Cc2ccccc2)C1c1cccc([N+](=O)[O-])c1 (stereo not drawn) [Nicardipine] |  |  |  |  |  |  | log k HSA (HSA [6]): 1.2; % AGP (AGP [7]): 87.0%; log k AGP (AGP [8]): 0.8
Cc1nccn1CC1CCc2c(c3ccccc3n2C)C1=O (stereo not drawn) [Ondansetron] | 1.33 | 1.30 | 2.22 | Weak Base | 1.66 | 0.54 | CHI IAM [4]: 39.01; hERG pIC50 (hERG channel; [12]): 5.73
CC[C@H]1OC(=O)[C@H](C)[C@@H](O[C@H]2C[C@@](C)(OC)[C@@H](O)[C@H](C)O2)[C@H](C)[C@@H](O[C@@H]2O[C@H](C)C[C@H](N(C)C)[C@H]2O)[C@](C)(O)C[C@@H](C)/C(=N\OCOCCOC)[C@H](C)[C@@H](O)[C@]1(C)O [Roxithromycin] | 1.95 | 0.60 | 2.78 | Basic | 3.7 | -0.07 | CHI IAM [4]: 51.33; hERG pIC50 (hERG channel; [12]): 4.44
COc1cc2nc(N3CCN(C(=O)C4COc5ccccc5O4)CC3)nc(N)c2cc1OC (stereo not drawn) [Doxazosin] | 2.09 | 0.72 | 2.16 | Weak Base | 2.24 | 1.04 | hERG pIC50 (hERG channel; [12]): 6.03
O=C(O)Cc1ccccc1Nc1c(Cl)cccc1Cl [Diclofenac] |  |  |  |  |  |  | log k AGP (AGP [8]): 0.2
Cn1c(=O)c2[nH]cnc2n(C)c1=O [Theophylline] |  |  |  |  |  |  | CHI at pH 2.6 ([1]; calibration set): 17.9; CHI at pH 7.4 ([1]; calibration set): 18.4; CHI at pH 10.5 ([1]; calibration set): 5.0

SMILES | chromatographic logD (physchem) | log k AGP [3] | log k IAM [4] | Charge [5] | chromatographic logP (physchem; [11]) | log k HSA [9] | further results
CC(C)NCC(O)COc1cccc2ccccc12 (stereo not drawn) [Propranolol] |  | 0.84 | 2.36 | Basic |  |  | log k HSA (HSA [6]): 0.3; %HSA (HSA [10]): 66.6%; % AGP (AGP [7]): 86.0%; log k AGP (AGP [8]): 0.8
CCCOC(C(=O)OC1CCN(C)CC1)(c1ccccc1)c1ccccc1 [Propiverine] | 3.84 | 0.94 | 3.12 | Basic | 5.05 | 1.01 | hERG pIC50 (hERG channel; [12]): 5.22
O=c1[nH]c2ccccc2n1C1CCN(CCCC(c2ccc(F)cc2)c2ccc(F)cc2)CC1 [Pimozide] | 3.03 | 1.47 | 2.83 | Weak Base | 3.89 | 1.41 | hERG pIC50 (hERG channel): 6.43
COCCc1ccc(OCC(O)CNC(C)C)cc1 (stereo not drawn) [Metoprolol] | 0.77 | -0.27 | 2.05 | Basic |  | -0.72 | CHI IAM [4]: 35.38; hERG pIC50 (hERG channel; [12]): 3.84
CCCC(=O)c1ccccc1 [Butyrophenone] |  |  |  |  |  |  | CHI at pH 2.6 ([1]; calibration set): 87.3; CHI at pH 7.4 ([1]; calibration set): 87.5; CHI at pH 10.5 ([1]; calibration set): 87.3; CHI IAM [2]: 32.0
COC(=O)C1=C(C)NC(C)=C(C(=O)OC(C)C)C1c1cccc2nonc12 (stereo not drawn) [Isradipine] | 3.25 | 1.32 | 2.21 | Neutral | 3.29 | 1.19 | hERG pIC50 (hERG channel; [12]): 5.71
CCCCC1=NC2(CCCC2)C(=O)N1Cc1ccc(-c2ccccc2-c2nnn[nH]2)cc1 [Irbesartan] | 1.39 | 1.10 | 1.62 | Zwitterionic | 2 | 1.30 | CHI IAM [4]: 26.14; hERG pIC50 (hERG channel; [12]): 4.71
CC[C@H]1OC(=O)[C@H](C)[C@@H](O[C@H]2C[C@@](C)(OC)[C@@H](O)[C@H](C)O2)[C@H](C)[C@@H](O[C@@H]2O[C@H](C)C[C@H](N(C)C)[C@H]2O)[C@](C)(OC)C[C@@H](C)C(=O)[C@H](C)[C@@H](O)[C@]1(C)O [Clarithromycin] | 1.9 | 0.20 | 2.70 | Basic | 4.55 | -0.24 | CHI IAM [4]: 49.68; hERG pIC50 (hERG channel): 4.32
CN(C)CCC(c1ccc(Br)cc1)c1ccccn1 (stereo not drawn) [Brompheniramine] | 1.74 | 0.68 | 2.8 | Basic | 4.27 | 0.68 | hERG pIC50 (hERG channel; [12]): 5.61
Cn1c(=O)c2nc(-c3ccccc3)[nH]c2n(C)c1=O [Phenyl theophylline] |  |  |  |  |  |  | CHI at pH 2.6 ([1]; calibration set): 51.7; CHI at pH 7.4 ([1]; calibration set): 51.2; CHI at pH 10.5 ([1]; calibration set): 51.3
CCCCCCCC(=O)c1ccccc1 [Octanophenone] |  |  |  |  |  |  | CHI IAM [2]: 49.4
COc1ccc(CCN2CCC(Nc3nc4ccccc4n3Cc3ccc(F)cc3)CC2)cc1 [Astemizole] | 2.68 | 1.12 | 2.77 | Basic | 3.52 | 1.17 | hERG pIC50 (hERG channel): 6.69
O=C1NC(=O)C(c2ccccc2)(c2ccccc2)N1 [Phenytoin] | 1.73 | 0.15 | 1.78 | Weak Acid | 1.85 | 0.69 | CHI IAM [4]: 29.66; hERG pIC50 (hERG channel): 3.71
CCCN1C[C@H](CSC)C[C@@H]2c3cccc4[nH]cc(c34)C[C@H]21 [Pergolide] | 2.47 | 1.04 | 2.85 | Basic | 3.81 | 0.73 | hERG pIC50 (hERG channel; [12]): 6.52
CNC(=C[N+](=O)[O-])NCCSCc1csc(CN(C)C)n1 [Nizatidine] |  |  |  |  |  |  | log k HSA (HSA [6]): -0.6; %HSA (HSA [10]): 20.4%; % AGP (AGP [7]): 37.1%; log k AGP (AGP [8]): -0.2
CCCCC(=O)c1ccccc1 [Valerophenone] |  |  |  |  |  |  | CHI at pH 2.6 ([1]; calibration set): 96.4; CHI at pH 7.4 ([1]; calibration set): 96.2; CHI at pH 10.5 ([1]; calibration set): 96.4; CHI IAM [2]: 37.3
